Data as given in US4021449A (Kyowa Hakko Kogyo Co., Ltd., priority 1973, dated 1977).
In brackets after ≈: the same amount, converted by molar mass. Like-named read-outs stand apart in the source and are kept apart here.

Assays:
[1] = test system: Staphylococcus aureus ATCC 6538P; assay: Antibacterial spectrum, minimum inhibitory concentration (Table 1); format: cell-based; conditions: ATCC6538P, read-out: Minimum Inhibitory Concentration, Staphylococcus aureus ATCC 6538P
[2] = test system: Streptococcus faecalis ATCC 10541; assay: as above; format: cell-based
[3] = test system: Klebsiella penumoniae ATCC 10031; assay: as above; format: cell-based; conditions: ATCC10031, read-out: Minimum Inhibitory Concentration, Klebsiella penumoniae ATCC 10031
[4] = in vivo; conditions: mouse, ip
Protocol: The acute toxicity (determined as LD50) is determined in mice by intraperitoneal injection.

[5] = test system: Sarcoma 180 solid tumor; assay: Anti-tumor activity against Sarcoma 180 solid tumor in mice (Table 3); format: in vivo; conditions: male dd-strain mice; one-sixth of LD50 i.p. once daily for 8 days; tumor weight on 10th day after transplantation
Protocol: Small portions of Sarcoma 180 solid tumor are transplanted subcutaneously into male dd-strain mice of about 20 g body weight. To each of 10 mice transplanted with tumor, a solution containing one-sixth of the LD50 value of the test compound is administered intraperitoneally once daily for 8 days starting on the day following the transplantation.
As a control, an equal volume of saline is injected in the same manner as above. On the 10th day after the transplantation, the mice are sacrificed and the weight of the tumor is measured. The ratio of average tumor weight of test animals to average tumor weight of control animals (T/C) is calculated.

[6] = Lipid-solubility: distribution ratio in butanol/water (1:1) (Table 2); format: physicochemical; conditions: in butanol/water (1:1) at 25° C
Source text: In determining the lipid-solubility, the distribution ratio of the compound in water and butanol (1:1) is used as the standard.

[7] = test system: Gram-nagative and Gram-positive bacteria; conditions: known; cited from earlier work
[8] = known; derivatives of U.S. Pat. No. 3,514,452; cited from earlier work
[9] = test system: tumor; conditions: known; cited from earlier work
[10] = Enterococcus faecalis, ATCC10541; read-out: Minimum Inhibitory Concentration, Streptococcus faecalis ATCC 10541

SMILES	MIC [1]	MIC [2, 10]	MIC [3]	LD50 [4]	Sarcoma 180 (T/C), ratio of average tumor weight of test animals to control animals [5]	Distribution Ratio (butanol/water) [6]	MIC ([2]; Enterococcus faecalis, ATCC10541, read-out: Minimum Inhibitory Concentration, Streptococcus faecalis ATCC 10541)	antibacterial activity (in words) [7]	toxicity (in words) [8]	anti-tumor activity (in words) [9]
CCCCCCCC/C=C\CCCCCCCC(=O)N1C2CN3C4=C(C(=O)C(N)=C(C)C4=O)C(COC(N)=O)C3(OC)C21 (stereo not drawn) [1a-oleoyl mitomycin C, la-oleoyl mitomycin C]	0.782 µg/mL (≈ 1.31 µM)	1.56 µg/mL (≈ 2.61 µM)	> 50 µg/mL	105 mg/kg	0.31					
CCCCC/C=C\C/C=C\CCCCCCCC(=O)N1C2CN3C4=C(C(=O)C(N)=C(C)C4=O)C(COC(N)=O)C3(OC)C21 (stereo not drawn) [1a-linoleoyl mitomycin C, la-linoleoyl mitomycin C]	0.782 µg/mL (≈ 1.31 µM)	0.782 µg/mL (≈ 1.31 µM)	12.5 µg/mL (≈ 20.9 µM)	110 mg/kg	0.35	9.665				
C/C=C/C(=O)N1C2CN3C4=C(C(=O)C(N)=C(C)C4=O)C(COC(N)=O)C3(OC)C21 (stereo not drawn) [1a-crotonoyl mitomycin C, reference compound]	1.56 µg/mL (≈ 3.88 µM)	12.5 µg/mL (≈ 31.1 µM)	0.782 µg/mL (≈ 1.94 µM)	35.5 mg/kg	0.53					
CCCCCCCC/C=C\CCCCCCCCCCCC(=O)N1C2CN3C4=C(C(=O)C(N)=C(C)C4=O)C(COC(N)=O)C3(OC)C21 (stereo not drawn) [la-ercoyl mitomycin C]	> 50 µg/mL		50 µg/mL (≈ 76.3 µM)	125 mg/kg			> 50 µg/mL			
COC12C(COC(N)=O)C3=C(C(=O)C(C)=C(N)C3=O)N1CC1NC12 (single isomer, unassigned) [mitomycin C, reference compound]	0.049 µg/mL (≈ 0.147 µM)	0.391 µg/mL (≈ 1.17 µM)	< 0.025 µg/mL					very strong antibacterial activity against Gram-nagative and Gram-positive bacteria	very toxic	remarkably strong anti-tumor activity
CCCCCCCCCCCCCC(=O)N1C2CN3C4=C(C(=O)C(N)=C(C)C4=O)C(COC(N)=O)C3(OC)C21 (stereo not drawn) [1a-myristoyl mitomycin C, la-myristoyl mitomycin C]	0.391 µg/mL (≈ 0.718 µM)	1.56 µg/mL (≈ 2.87 µM)	> 50 µg/mL	45 mg/kg						
CCCC(=O)N1C2CN3C4=C(C(=O)C(N)=C(C)C4=O)C(COC(N)=O)C3(OC)C21 (stereo not drawn) [1a-butyryl mitomycin C, reference compound]	3.12 µg/mL (≈ 7.73 µM)	25 µg/mL (≈ 61.8 µM)	3.12 µg/mL (≈ 7.73 µM)	19 mg/kg	0.59	4.402			much less toxicity than mitomycin C	
CCCCCCCCCCCCCCCCCC(=O)N1C2CN3C4=C(C(=O)C(N)=C(C)C4=O)C(COC(N)=O)C3(OC)C21 (stereo not drawn) [1a-stearoyl mitomycin C, la-stearoyl mitomycin C]	> 50 µg/mL	> 50 µg/mL	> 50 µg/mL	75 mg/kg						
CC/C=C\C/C=C\C/C=C\CCCCCCCC(=O)N1[C@H]2[C@@H]1CN1C3=C(C(=O)C(N)=C(C)C3=O)[C@@H](COC(N)=O)[C@@]21OC [1a-linolenoyl mitomycin C, la-linolenoyl mitomycin C]	0.782 µg/mL (≈ 1.31 µM)	1.56 µg/mL (≈ 2.63 µM)	6.25 µg/mL (≈ 10.5 µM)	95 mg/kg						
CCCCCCCCCCCCCCCC(=O)N1C2CN3C4=C(C(=O)C(N)=C(C)C4=O)C(COC(N)=O)C3(OC)C21 (stereo not drawn) [1a-palmitoyl mitomycin C, la-palmitoyl mitomycin C]	0.782 µg/mL (≈ 1.37 µM)	0.782 µg/mL (≈ 1.37 µM)	> 50 µg/mL	75 mg/kg						
CCCCCCCCCC(=O)N1C2CN3C4=C(C(=O)C(N)=C(C)C4=O)C(COC(N)=O)C3(OC)C21 (stereo not drawn) [1a-decanoyl mitomycin C, la-decanoyl mitomycin C]	0.782 µg/mL (≈ 1.6 µM)	> 50 µg/mL	12.5 µg/mL (≈ 25.6 µM)	67.5 mg/kg		7.889				
CCCCCC/C=C/CCCCCCCCCC(=O)N1[C@H]2[C@@H]1CN1C3=C(C(=O)C(N)=C(C)C3=O)[C@@H](COC(N)=O)[C@@]21OC [1a-vaccenoyl mitomycin C, la-vaccenoyl mitomycin C]	0.782 µg/mL (≈ 1.31 µM)	3.12 µg/mL (≈ 5.22 µM)	50 µg/mL (≈ 83.5 µM)	105 mg/kg	0.34					
CCCCCC[C@@H](O)C/C=C\CCCCCCCC(=O)N1C2CN3C4=C(C(=O)C(N)=C(C)C4=O)C(COC(N)=O)C3(OC)C21 (stereo partly drawn) [1a-ricinoleoyl mitomycin C, la-ricinoleoyl mitomycin C]	0.391 µg/mL (≈ 0.636 µM)	0.782 µg/mL (≈ 1.27 µM)	0.782 µg/mL (≈ 1.27 µM)	60 mg/kg	0.28					
CCCCCCCCCCCC(=O)N1C2CN3C4=C(C(=O)C(N)=C(C)C4=O)C(COC(N)=O)C3(OC)C21 (stereo not drawn) [1a-lauroyl mitomycin C, la-lauroyl mitomycin C]	0.391 µg/mL (≈ 0.757 µM)	> 50 µg/mL	> 50 µg/mL	44.5 mg/kg						
COC12C(COC(N)=O)C3=C(C(=O)C(C)=C(N)C3=O)N1CC1C2N1C(C)=O (stereo not drawn) [1a-acetyl mitomycin C, reference compound]	1.56 µg/mL (≈ 4.15 µM)	6.25 µg/mL (≈ 16.6 µM)	0.782 µg/mL (≈ 2.08 µM)	23 mg/kg	0.48	3.749			much less toxicity than mitomycin C	
